Values after ≈ are worked out from the molar mass of the structure shown.
Tests used:
[1] = tested on: Huh7 or HepG2 cell line; experiment: MTT assay (cytotoxicity); type: cell-based, human; settings: 24 hours and 48 hours
Procedure: The MTT assay is a colorimetric assay that measures the reduction of yellow 3-(4,5-dimethylhiazol-2-yl)-2,5-diphenyl tetrazolium bromide (MTT) by mitochondrial succinate dehydrogenase. The MTT enters the cells and passes into the mitochondria where it is reduced to an insoluble, dark purple, formazan product. The cells are then solubilized with an organic solvent (e.g., isopropanol) and the released, solubilized formazan reagent is measured spectrophotometrically. Since reduction of MTT can only occur in metabolically active cells, the level of activity is a measure of the viability of the cells.
Cells of the Huh7 or HepG2 cell line were seeded in a 96 well plate. The plate was incubated overnight at 37° C. in a humidified incubator, 5% CO2. The test compounds were added to the plate. Different concentrations of drug were tested in triplicate along with a negative control. The final volume was adjusted to 100 μl per well. The plate was incubated overnight at 37° C. in a humidified incubator, 5% CO2. After 24 hours and 48 hours, MTT reagent (5 mg/ml, 10 μl/100 μl per well of the 96 well plate) was added and incubated at 37° C. for 3 hours. After 3 hours, 100 μl of the DMSO solution was added to each well and the plate was rocked at room temperature for 1 hour. The plate was then read on a plate reader at […].

[2] = tested on: Candida albicans (CAF-2); experiment: Anti-fungal/anti-yeast activity: MIC50 (broth microdilution) and MFC; type: cell-based
Procedure: (§1) Fluconazole, an ergosterol inhibitor, and the beta-1,3-glucan inhibitor micafungin served as controls (See Tables 1-8).
(§2) The minimum inhibitory concentrations resulting in 50% growth inhibition (MIC50) of […] Candida species (C. albicans, C. tropicalis and C. glabrata, C. lusitaniae, C. parapsilosis, and C. apicola) as well as Aspergillus fumigatus to a set of novel synthetic compounds was determined in accordance with the guidelines in CLSI document M27-A2 (Clinical and Laboratory Standards Institute; Wayne, Pa.). The total volume of cells and drug was 100 μL per microtiter well, and each drug was diluted in RPMI to achieve final concentrations of 0.2-100 μg/ml. Uninoculated cultures were used as a reference standard. Stock inoculum suspensions were prepared from 24 hour cultures on YPD (yeast extract/peptone/dextrose) media at 30° C. For MIC determinations, an inoculum of 1.0×10^3 cells of Candidia and 2.0×10^3 cells of Aspergillus per well were used, and cells in diluted drugs were prepared in RPMI-1640 medium. MICs were determined both visually and spectrophotometrically at 24 hours and 48 h at 550 nm using a micro plate reader. The MIC50 endpoint was measured as the lowest drug concentration resulting in a reduction of growth of 50% or more compared with growth of the control.
(§3) The minimum fungicidal concentrations (MFCs) were determined for each drug-isolate-medium combination as follows. After 48 hours of incubation, 100 μL of each drug-isolate-medium combination (2 plates) was subcultured onto YPD plates (100 μL of solution was spread over the YPD plate). […] The plates were then incubated at 30° C. for 48 hours.
(§4) The in vitro fungicidal activities (MFCs) were determined for each drug-isolate-medium combination as follows. After 48 hours of incubation, 10 μL each drug-isolate-medium combination was spotted onto YPD plates (10 μL of each well is spotted sequentially with positive and negative control wells). […] The plates were then incubated at 30° C. for 48 hours.

[3] = tested on: Candida lusitaniae; experiment: as above; type: cell-based
Procedure: as §1, §2, §3, §4

[4] = tested on: Candida tropicalis; experiment: as above; type: cell-based
Procedure: as §1, §2, §3, §4

[5] = tested on: Candida glabrata; experiment: as above; type: cell-based
Procedure: as §1, §2, §3, §4

[6] = tested on: Candida apicola; experiment: as above; type: cell-based
Procedure: as §1, §2, §3, §4

[7] = tested on: Candidia parapsilosis; experiment: as above; type: cell-based
Procedure: as §1, §2, §3, §4

[8] = tested on: Aspergillus fumigatus; experiment: as above; type: cell-based
Procedure: as §1, §2, §3, §4

[9] = tested on: Saccharomyces cerevisiae (YPH501); experiment: as above; type: cell-based
[10] = tested on: Huh7 cells; experiment: Neutral red uptake assay (cytotoxicity); type: cell-based, human
From the text: The neutral red uptake assay is a cytotoxicity test that is based on the ability of viable cells to incorporate and bind the supra-vital dye neutral red in the lysosomes. This weakly cationic dye penetrates cell membranes by non-ionic passive diffusion and concentrates in the lysosomes, where it binds by electrostatic hydrophobic bonds to anionic and phosphate groups of the lysosomal matrix. The dye is then extracted from the viable cells using an acidified ethanol solution, and the absorbance of the solubilized dye is read. When the cell dies or the pH gradient is reduced, the dye is not retained and consequently, the amount of retained dye is proportional to the number of viable cells. Most primary cells and cell lines can be used for this method. The HepG2 and Huh7, two human hepatoma cell lines, were used for this study. The cells were seeded in 96-well tissue culture plates and treated for 48 hours with the compounds. The plates were then incubated for 2 hours with a medium containing neutral red. The cells were subsequently washed, the dye was extracted in each well, and the absorbance was read using a spectrophotometer (FIG. 3 and Table 11).

[11] = tested on: Fluconazole Resistant C. albicans; experiment: microbe, parasite or virus in culture; type: cell-based; settings: Candida albicans
Procedure: as §2
(§5) The MIC50 of Compounds I-1, I-2, and I-5 in several mutant strains of Candida albicans, including fluconazole resistant clinical strains, was determined according to the methods described in Example 1 (see Table 9). The activity of Compound I-1 against fluconazole resistant strains was further explored (see Table 10). In Table 10, Strain #1 is a fluconazole sensitive Candida albicans strain; Strain #17 is a fluconazole resistant Candida albicans strain; C. albicans CS#01 is a first clinical strain; C. albicans CS#02 is a second clinical strain.

[12] = tested on: C. albicans Mutants; experiment: MIC50 in C. albicans mutant strains; type: cell-based; settings: Candida albicans
Procedure: as §2, §5

[13] = Saccharomyces cerevisiae (YPH501)

CN(Cc1ccccc1)C(=O)Cn1sc2ccccc2c1=O [Compound I-1]
Toxicity to mammalian cell lines (MTT assay) [1]: minimally toxic
Activity (fungicidal/fungistatic) [2]: fungicidal (An MFC/MIC ratio of less than four indicates that the compound is fungicidal)
MFC [2]: 6 µg/mL
Ratio MFC/MIC [2]: 2
MIC ([2]; read-out: MIC-50): 3.2 µg/mL
Activity (fungicidal/fungistatic) ([3]; Candida lusitaniae): fungicidal (An MFC/MIC ratio of less than four indicates that the compound is fungicidal)
Ratio MFC/MIC ([3]; Candida lusitaniae): 1
MFC ([3]; Clavispora lusitaniae): 3.2 µg/mL
MIC ([3]; Clavispora lusitaniae, read-out: MIC-50): 3.2 µg/mL
Activity (fungicidal/fungistatic) [4]: fungicidal (An MFC/MIC ratio of less than four indicates that the compound is fungicidal)
MFC [4]: 3.2 µg/mL
Ratio MFC/MIC [4]: 1
MIC ([4]; read-out: MIC-50): 3.2 µg/mL
Activity (fungicidal/fungistatic) ([5]; Candida glabrata): fungicidal (An MFC/MIC ratio of less than four indicates that the compound is fungicidal)
Ratio MFC/MIC ([5]; Candida glabrata): 2
MFC ([5]; Nakaseomyces glabratus): 12.5 µg/mL
MIC ([5]; Nakaseomyces glabratus, read-out: MIC-50): 6.2 µg/mL
Activity (fungicidal/fungistatic) ([6]; Candida apicola): fungicidal (An MFC/MIC ratio of less than four indicates that the compound is fungicidal)
MIC-50 ([6]; Candida apicola): 3.2 µg/mL
Ratio MFC/MIC ([6]; Candida apicola): 1
MFC ([6]; Starmerella apicola): 3.2 µg/mL
MFC [7]: 3.2 µg/mL
Activity (fungicidal/fungistatic) ([7]; Candidia parapsilosis): fungicidal (An MFC/MIC ratio of less than four indicates that the compound is fungicidal)
Ratio MFC/MIC ([7]; Candidia parapsilosis): 1
MIC ([7]; read-out: MIC-50): 3.2 µg/mL
Activity (fungicidal/fungistatic) [8]: fungistatic (an MFC/MIC ratio of greater than four indicates that the compound is fungistatic)
MFC [8]: 100 µg/mL
MIC50 [8]: 25 µg/mL
Ratio MFC/MIC [8]: 4
MFC ([9]; Saccharomyces cerevisiae): 3.2 µg/mL (≈ 10.2 µM)
Activity (fungicidal/fungistatic) [9, 13]: fungicidal (An MFC/MIC ratio of less than four indicates that the compound is fungicidal)
Ratio MFC/MIC [9, 13]: 2
MIC ([9]; Saccharomyces cerevisiae, read-out: MIC-50): 1.6 µg/mL (≈ 5.12 µM)
Percentage Viability ([10]; 3.3 μg/mL (approx 1X MIC)): >100%
Percentage Viability ([10]; 10 μg/mL (approx 3X MIC)): >100%
Percentage Viability ([10]; 33 μg/mL (approx 10X MIC)): >100%
Percentage Viability ([10]; 100 μg/mL (approx 30X MIC)): 83%
MIC50 ([11]; C. albicans CS#01, first clinical strain): 3 µg/mL (≈ 9.6 µM)
MIC50 ([11]; C. albicans CS#02, second clinical strain): 3 µg/mL (≈ 9.6 µM)
MIC50 ([11]; Strain #1, fluconazole sensitive Candida albicans strain): 3 µg/mL (≈ 9.6 µM)
MIC50 ([11]; Strain #17, fluconazole resistant Candida albicans strain): 6 µg/mL (≈ 19.2 µM)
MIC50 ([12]; C. albicans strain CAF-2): 3 µg/mL (≈ 9.6 µM)
MIC50 ([12]; C. albicans strain CHK11): 3 µg/mL (≈ 9.6 µM)
MIC50 ([12]; C. albicans strain CHK21): 3 µg/mL (≈ 9.6 µM)
MIC50 ([12]; C. albicans strain CHK23): 3 µg/mL (≈ 9.6 µM)
MIC50 ([12]; C. albicans strain GOA31): 6 µg/mL (≈ 19.2 µM)
MIC50 ([12]; C. albicans strain GOA32): 3 µg/mL (≈ 9.6 µM)

Reference: patent US9040715B2 (priority 2008, dated 2015)
